{
  "source": "patent US20130190324A1",
  "about": "“TOPICAL OCULAR DRUG DELIVERY” (The Regents of the University of Colorado, a body corporate, priority 2011, published 2013)",
  "key": {"[1]": {"experiment": "Aqueous solubility of GFX and ion pair complex in PBS", "type": "physicochemical", "details": "phosphate buffer saline (PBS), thermodynamic from solid, phosphate buffer saline pH 7.4, 37° C., mean ± SD, n = 3", "experimental": "PBS without amino acid was included as control. Samples were incubated at 37° C. for 24 hr in incubator shaker with constant shaking at 200 rpm. At the end of 24 hr of incubations, samples were filtered through 0.45 μm filter and filtrates were analyzed for drug content. All experiments were performed in triplicate."}, "[2]": {"details": "single eye drop, cited from earlier work"}, "[3]": {"test_system": "New Zealand white rabbit cornea", "experiment": "In vitro transport across rabbit cornea (Ussing chamber)", "type": "in vitro ADME", "details": "for transport in presence of OCT competitive inhibitor MPP+: MPP+ 500 μM for GFX-ARG ion pair", "protocol": "(§1) In vitro transport of […], and GFX-LYS were carried out across the New Zealand white rabbit cornea and sclera-choroid-[…]). Rabbit eyes were obtained within 24 hr of harvesting from Pel-Freez Biologicals (Rogers, Ark.) and shipped overnight in Hank's balanced salt solution on wet ice. Eyes were used immediately upon arrival. Eyes were washed with assay buffer and cleaned from the muscle and unwanted tissues. […] The small part of the sclera left with cornea helps in mounting the cornea on Ussing chambers. For isolation of the SCRPE, anterior and posterior parts were separated by a circumferential cut at the limbus. […] After separation of the retina, the eye cup was flattened with small cuts around the globe. […] A circulating water bath was used to maintain the temperature at 37° C. during the transport study. The pH of the assay buffer was maintained at 7.4 using 95% air-5% CO2 aeration which also helps in stirring of bathing solutions. Samples were collected (200 μL) from the receiver side every 30 minute for 3 hr and the lost volume was replaced with fresh assay buffer pre-equilibrated at 37° C. GFX levels were analyzed using an LC-MS/MS assay. […] GFX concentrations in the transport study and ocular tissue samples were analyzed using a validated LC-MS/MS method. […] Chromatographic separation of GFX and the internal standard moxifloxacin was performed on Obelisc C18 column (2.1×10 mm, 3 μm). Elution of analytes was performed using linear gradient elution with mobile phase consisting of 5 mM ammonium formate (pH 3.5) and acetonitrile (pH 3.5) with a flow rate of 300 μl/min and total run time of 6 min."}, "[4]": {"test_system": "New Zealand white rabbit sclera-choroid-RPE (SCRPE)", "experiment": "In vitro transport across rabbit sclera-choroid-RPE (Ussing chamber)", "type": "in vitro ADME", "details": "rabbit SCRPE; for transport in presence of OCT competitive inhibitor MPP+: MPP+ 500 μM for GFX-ARG ion pair", "protocol": "as §1"}, "[5]": {"experiment": "In vivo ocular tissue distribution after single topical eye drop", "parameters": "species or system pigmented rabbits", "protocol": "Male New Zealand Satin rabbits in the weight range of 1.8 to 3 kg were obtained from Western Oregon Rabbit Company (Philmoth, Oreg.). Rabbits were divided into two groups (2 animals each), one group received GFX solution (5 mg/ml) in sterile phosphate buffer saline (PBS), and the other group received the GFX-ARG (1:1) ion pair complex (5.0 mg/ml) solution in PBS. Rabbits were restrained in a rabbit restrainer and allowed to stabilize for 5-10 minutes. A topical eye drop (30 μl) of drug solution was applied in both eyes of rabbits using a positive displacement pipette (Gilson 10-100 μl) and sterile tips. To minimize the runoff of instilled dose, the eyelids were gently closed for few seconds after dosing. The time of dose administered was recorded for each animal. After 1 hr of dosing, blood samples were collected from the marginal ear vein and rabbits were euthanized by intravenous injection of sodium pentobarbitone (150 mg/kg) in the marginal ear vein. […]\nGFX content in rabbit ocular tissues was measured from the tissues by acetonitrile based extraction. […]\nThe aqueous humor and vitreous samples were analyzed directly after dilution, without extraction. […]\nGFX concentrations in the transport study and ocular tissue samples were analyzed using a validated LC-MS/MS method. […]"}, "conjunctiva": {"test_system": "conjunctiva", "experiment": "In vitro transport of GFX prodrugs across conjunctiva", "type": "in vitro ADME, Rabbit"}, "[6]": {"test_system": "calf sclera-choroid-RPE (SCRPE)", "experiment": "In vitro transport of substrate cassette across normoxic and hypoxic calf SCRPE", "description": "(§2) Animals used in this study were those that were sacrificed as part of other experiments approved by the Institutional Animal Care Committee of the Colorado State University (Fort Collins) and University of Colorado Anschutz Medical campus. Hypoxic and normoxic calf eyes were obtained from the Department of Physiology, School of Veterinary Medicine, Colorado State University (Fort Collins, Colo.). Briefly, 1 day old male Holstein calves (n=4) were kept in hypobaric hypoxic chambers (PB=445 mm Hg) for 2 weeks. For control experiment, age matched calves (n=4) were kept at ambient altitude (PB=650 mm Hg) and normoxia for two weeks. Hypoxic and normoxic rat eyes were obtained from the Department of Medicine, University of Colorado Anschutz Medical campus (Aurora, Colo.). Sprague Dawley rats (n=4) were maintained in hypobaric hypoxic chambers (PB=380 mm Hg) for 6 weeks and age matched controls were kept at ambient pressure and normoxia.\n(§3) In vitro transport studies across hypoxic and control calf cornea and sclera-choroid-RPE (SCRPE) were carried using cassette dosing approach. A cassette of drug transporter substrates, Gly-Sar (PEPT), valacylovir (ATB^0+), MPP^+ (OCT), and phenylacetic acid (MCT) at a concentration of 100 μM each in assay buffer was prepared. Briefly, the calf eyes were harvested immediately after euthanasia and transferred to the laboratory on ice. Upon arrival in the lab, the eyes were washed with assay buffer and cleaned from muscle and unwanted tissues. Anterior and posterior parts were separated by circumferential cut at the limbus. Vitreous was removed and the neural retina was separated from the choroid-RPE by filling the eye cup with assay buffer. The retina afloat in assay buffer was isolated and the eye cup was divided into two pieces (˜1.5×1.5 cm) of sclera-choroid-RPE. Isolated tissues were mounted on modified Ussing chambers (Navicyte, Sparks, Nev.) such that the episcleral side of SCRPE or epithelial side of cornea was facing the donor chamber and retinal side or endothelial side of the cornea was facing the receiver chamber. The chambers were filled with 1.5 ml of assay buffer at 37° C. with (donor side) or without (receiver side) the cocktail of drug transporter substrates. For the study of effect of transporter inhibitors, cocktail mixture (500 μM) of transporter inhibitors was added on both donor and acceptor sides.\n(§4) During the transport study, the bathing fluids were maintained at 37° C. using circulating warm water. The pH of the fluids was maintained at pH 7.4 using 95% air-5% CO2 aeration. Samples were collected (200 μL) from receiver side every hour for 6 hours and the removed volume was replaced with fresh assay buffer pre-equilibrated to 37° C. Drug levels were analyzed using a LC-MS/MS assay. Permeation data were corrected for dilution of the receiver concentrations with sample volume replenishment.\n(§5) Analyte concentrations in transport study samples were measured using LC-MS/MS method after 5-fold dilution with acetonitrile to reduce the salt concentrations. A cassette analysis method was developed for simultaneous analysis of Gly-Sar, valacylovir, and MPP Phenyl acetic acid was analyzed separately with a negative ionization method and a normal phase separation method. An API-3000 triple quadrupole mass spectrometry (Applied Biosystems, Foster City, Calif., USA) coupled with a PerkinElmer series-200 liquid chromatography (Perkin Elmer, Waltham, Mass., USA) system was used for analysis. Gly-Sar, valacylovir and MPP were separated on Supelco C-5 column (2.1×10 mm, 3 μm) using water containing 0.1% formic acid (A) and acetonitrile:methanol (50:50 v/v) containing 0.1% formic acid (B) as mobile phase. A linear gradient elution at a flow rate of 0.3 ml/min with a total run time of 9 min was employed. Phenyl acetic acid was separated in normal phase separation mode on Obelisc-N silica column (2.1×10 mm, 3 μM) using 5 mM ammonium formate at pH 3.5 (A) and acetonitrile (B) as mobile phase."}, "calf cornea": {"test_system": "calf cornea", "experiment": "In vitro transport of substrate cassette across normoxic and hypoxic calf cornea", "description": "as §2, §3, §4, §5"}, "[7]": {"details": "cited from earlier work"}},
  "note": "“Also recorded” adds a separate entry of the source. Read-outs that look alike come from different tables or passages of the source.",
  "data": [
    {"smiles": "COc1c(N2CCNC(C)C2)c(F)cc2c(=O)c(C(=O)O)cn(C3CC3)c12", "note": "(stereo not shown) [GFX, gatifloxacin]", "values": [
      {"measurement": "solubility at 24 h", "setting": "[1]", "value": 5.49, "unit": "mg/mL"},
      {"measurement": "reported Tmax", "setting": "[2]; aqueous humor", "value": 19.8, "unit": "min"},
      {"measurement": "reported Tmax", "setting": "[2]; cornea", "value": 4.98, "unit": "min"},
      {"measurement": "solubility", "setting": "physchem; water", "value": 0.64, "unit": "mg/mL"},
      {"measurement": "solubility", "setting": "physchem; water for injection", "value": 2.5, "unit": "mg/mL"}
    ]},
    {"smiles": "COc1c(N2CCN(C(=O)C(N)CCCNC(=N)N)C(C)C2)c(F)cc2c(=O)c(C(=O)O)cn(C3CC3)c12", "note": "(stereo not shown) [GFX-ARG, 7-(4-(2-amino-5-guanidinopentanoyl)-3-methylpiperazin-1-yl)-1-cyclopropyl-6-fluoro-8-methoxy-4-oxo-1,4-dihydroquinoline-3-carboxylic acid]", "values": [
      {"measurement": "cumulative % transport / permeability compared with GFX (in words)", "setting": "[3]", "value": "significantly improved permeability"},
      {"measurement": "transport in presence of OCTN inhibitor L-carnitine", "setting": "[3]; L-carnitine 500 μM", "value": "did not show any significant inhibitory effect"},
      {"measurement": "transport in presence of OCT competitive inhibitor MPP+", "setting": "[3]", "value": "inhibited significantly"},
      {"measurement": "cumulative % transport in presence vs absence of ATB0+ inhibitor α-methyl tryptophan", "setting": "[3]; inhibitor 500 μM", "value": "no significant difference"},
      {"measurement": "cumulative % transport / permeability compared with GFX (in words)", "setting": "[4]", "value": "significantly improved permeability"},
      {"measurement": "transport in presence of OCTN inhibitor L-carnitine", "setting": "[4]; L-carnitine 500 μM", "value": "did not show any significant inhibitory effect"},
      {"measurement": "transport in presence of OCT competitive inhibitor MPP+", "setting": "[4]", "value": "inhibited significantly"},
      {"measurement": "cumulative % transport in presence vs absence of ATB0+ inhibitor α-methyl tryptophan", "setting": "[4]; inhibitor 500 μM", "value": "no significant difference"},
      {"measurement": "GFX ocular tissue levels compared with GFX alone (in words)", "setting": "[5]; all ocular tissues, 1 hr after single topical 30 μl eye drop, 5 mg/ml in PBS", "value": "higher concentrations of GFX in all ocular tissues; also recorded: enhanced ocular delivery to all ocular tissues"},
      {"measurement": "solubility", "setting": "physchem; water", "value": 25.5, "unit": "mg/mL"},
      {"measurement": "solubility", "setting": "physchem; water for injection", "value": 25.5, "unit": "mg/mL"}
    ]},
    {"smiles": "COc1c(N2CCNC(C)C2)c(F)cc2c(=O)c(C(=O)NCCCN(C)C)cn(C3CC3)c12", "note": "(stereo not shown) [GFX-OCT, 1-cyclopropyl-N-(3-(dimethylamino)propyl)-6-fluoro-8-methoxy-7-(3-methylpiperazin-1-yl)-4-oxo-1,4-dihydroquinoline-3-carboxamide]", "values": [
      {"measurement": "cumulative % transport / permeability compared with GFX (in words)", "setting": "[3]", "value": "significantly (p<0.01) higher than GFX"},
      {"measurement": "transport in presence of OCT competitive inhibitor MPP+", "setting": "[3]", "value": "significantly inhibited"},
      {"measurement": "cumulative % transport / permeability compared with GFX (in words)", "setting": "[4]", "value": "significantly (p<0.01) higher than GFX"},
      {"measurement": "transport in presence of OCT competitive inhibitor MPP+", "setting": "[4]", "value": "significantly inhibited"},
      {"measurement": "levels in posterior tissues compared with GFX (in words)", "setting": "[5]; vitreous humor and CRPE, 1 h after topical eye drop", "value": "higher concentrations of GFX in all posterior tissues"},
      {"measurement": "cumulative % transport compared with GFX (in words)", "setting": "conjunctiva", "value": "significantly (p<0.01) higher than GFX"},
      {"measurement": "transport in presence of OCT competitive inhibitor MPP+", "setting": "conjunctiva", "value": "significantly inhibited"},
      {"measurement": "solubility", "setting": "physchem; water for injection", "value": 33.3, "unit": "mg/mL"}
    ]},
    {"smiles": "CC(C)[C@H](N)C(=O)OCCOCn1cnc2c(=O)[nH]c(N)nc21", "note": "[valacylovir]", "values": [
      {"measurement": "apparent permeability (Papp) across hypoxic vs normoxic tissue (in words)", "setting": "[6]; calf SCRPE", "value": "significantly higher across normoxic SCRPE than hypoxic SCRPE"},
      {"measurement": "transport across hypoxic vs normoxic tissue (in words)", "setting": "[6]; calf SCRPE, cassette 100 μM", "value": "significantly decreased in hypoxic calf SCRPE; also recorded: significantly higher across normoxic calf SCRPE than hypoxic calf SCRPE"},
      {"measurement": "decrease in cumulative % transport across hypoxic tissue", "setting": "[6]; hypoxic vs normoxic calf SCRPE", "value": 61, "unit": "%"},
      {"measurement": "apparent permeability (Papp) across hypoxic vs normoxic tissue (in words)", "setting": "calf cornea; calf cornea", "value": "significantly higher across normoxic cornea than hypoxic cornea"},
      {"measurement": "transport across hypoxic vs normoxic tissue (in words)", "setting": "calf cornea; calf cornea, cassette 100 μM", "value": "significantly higher across normoxic calf cornea than hypoxic calf cornea"},
      {"measurement": "decrease in cumulative % transport across hypoxic tissue", "setting": "calf cornea; hypoxic vs normoxic calf cornea", "value": 36, "unit": "%"},
      {"measurement": "increase in oral bioavailability as compared to parent acyclovir", "setting": "[7]", "value": "three to five fold increase"}
    ]}
  ]
}
